Experimental data as given in patent publication US11491100B2, “Dermal composition comprising chelator and base” (Primal Therapies, Inc., priority 2013, dated 2022).

assay: Ranking of candidate chelator and base agents by potency score; design: key: 1 = most desired, 3 = least desired; conditions: not given
Description: Methods of selecting base and chelator compositions depend on use. Compositions may be determined by ranking base, chelator and enhancer agents, from most desired to least desired, for multiple parameters such as safety, solubility, compatibility, pH, potency, taste, consistency, smell and others.
Non-toxic chelator and base compositions may be ranked according to the desired parameters of potency and approved-for-oral-consumption. A desired parameter such as potency for a candidate chelator or base may be given a score of “1” for most desired and a score of “3” for least desired. In one embodiment, candidate chelators, bases and enhancers may be ranked by FDA approval for oral consumption. Agents with a score of “1” may have approval for the desired indication and a score of “3” may not have approval or may not be approved for the desired indication. The resultant overall score may be tabulated and may be used to facilitate selection.
Microbes were cultured in growth media and plated at 10^3 CFU/well in a 96 well microtiter plate and cultured for 24 h. Wells were then treated with 10-50 μL of media only as control or with media+chelator agents, base agents, acid agents, neutral agents or enhancer agents for 30 min at RT followed by repleation in […] of fresh RPMI pH 7.2. Plates were then incubated for an additional 48-72 h prior to harvest. Wells were washed 3× in PBS and residual biofilm was stained using crystal violet. Wells were washed 4× in PBS and the amount of retained stain was measured. […] Synergistic effects were evaluated and numerous compounds were examined for their ability to synergistically act with chelators to inhibit biofilm formation (examples of some test compounds analyzed for synergy with chelators are presented in Table 2).
Screens of base components to use in compositions comprising chelator were performed. Briefly, the pH of S. mutans cultures were measured 24 and 48 hr post administration of chelator and candidate base components. Combinations of chelator, base and enhancer agents were also evaluated for affecting metabolic activity and/or metabolism of S. mutans (FIG. 3).

Compound | POTENCY (score 1-3)
NCCCC[C@H](N)C(=O)O [Lysine] | 2

same assay, conditions: base agents that may be used in combination with chelators

Compound | POTENCY (score 1-3)
O=c1cc[nH]c(=O)[nH]1 [Uracil] | 3
OC[C@H]1O[C@H](O[C@H]2[C@H](O)[C@@H](O)[C@H](O)O[C@@H]2CO)[C@H](O)[C@@H](O)[C@@H]1O [D-maltose] | 1
CNC(=C[N+](=O)[O-])NCCSCc1ccc(CN(C)C)o1 [Remitidine, reference compound] | 1
Cc1ncc(CO)c(CN)c1O [Pyridoxamine] | 1
protamine sulfate | 2
O=P([O-])([O-])O.[Ca+2] [Dibasic calcium phosphate] | 3
OCN(CO)CO [Tris (hydroxymethyl) amine] | 2
Vitamin B12 | 2
Lysozyme | 1
NC(N)=Nc1nc(CSCCC(N)=NS(N)(=O)=O)cs1 [Famotidine, reference compound] | 1
Vitamin K | 1
Cc1ncc(COP(=O)(O)O)c(C=O)c1O [Pyridoxal-5-phosphate] | 1
Cc1ncc(CO)c(CO)c1O [Pyridoxine] | 1
NC(CO)(CO)CO [Tris amine] | 2

same assay, conditions: chelators that may be used in combination with base agents

Compound | POTENCY (score 1-3)
Anachelins | 1
O=C(O)CN(CCOCCOCCN(CC(=O)O)CC(=O)O)CC(=O)O [EGTA] | 1
CC(=O)N(O)CCC[C@@H]1NC(=O)[C@H](CCCN(O)C(C)=O)NC1=O [Rhodotorulic acid] | 1
CC(=O)N(O)CCCCCNC(=O)CCC(=O)N(O)CCCCCNC(=O)CCC(=O)N(O)CCCCCN [Deferasiroxamine B] | 1
Cyclodextrins | 1
O=S(=O)(O)CC(S)CS (centres unmarked) [DMPS] | 1
Chlorophylls | 1
Ferrioxamines | 1
O=P(O)(O)O[C@H]1[C@H](OP(=O)(O)O)[C@@H](OP(=O)(O)O)[C@H](OP(=O)(O)O)[C@@H](OP(=O)(O)O)[C@H]1OP(=O)(O)O [Inositol hexaphosphate] | 2
Oc1ccc(C=Cc2cc(O)cc(O)c2)cc1 [Resveratrol] | 2
Deferoxamines | 1
Vitamin B12 | 1
O=c1c(O)c(-c2ccc(O)c(O)c2)oc2cc(O)cc(O)c12 [Quercetin] | 1
COc1cc(/C=C/C(=O)CC(=O)/C=C/c2ccc(O)c(OC)c2)ccc1O [Curcumin] | 2
O=C(OC[C@H]1O[C@@H](OC(=O)c2cc(O)c(O)c(OC(=O)c3cc(O)c(O)c(O)c3)c2)[C@H](OC(=O)c2cc(O)c(O)c(OC(=O)c3cc(O)c(O)c(O)c3)c2)[C@@H](OC(=O)c2cc(O)c(O)c(OC(=O)c3cc(O)c(O)c(O)c3)c2)[C@@H]1OC(=O)c1cc(O)c(O)c(OC(=O)c2cc(O)c(O)c(O)c2)c1)c1cc(O)c(O)c(OC(=O)c2cc(O)c(O)c(O)c2)c1 [Tannic acid] | 1
O=C(O[C@@H]1Cc2c(O)cc(O)cc2O[C@@H]1c1cc(O)c(O)c(O)c1)c1cc(O)c(O)c(O)c1 [EGCG] | 1
O=C(O)[C@@H](S)[C@@H](S)C(=O)O [DMSA] | 1
